Data as given in article PMC11207335, “In Vitro Metabolism and Transport Characteristics of Zastaprazan” (Pharmaceutics, 2024).

Experiments:
[1] = target: T1, human cDNA-expressed CYP2C19 (Homo sapiens, UniProt P33261); experiment: Enzyme kinetics of JP-1366 metabolism in cDNA-expressed CYP2C19; assay type: in vitro ADME
T1 construct: purchased Corning Life Sciences
Protocol: (§1) The reaction was initiated by adding 5 μL of NADPH-generating system in triplicate, and the mixture was further incubated for 30 min at 37 °C in a shaking water bath.
(§2) The concentrations of the metabolites were quantitated, and their formation rates (pmol/mg protein/min) were calculated by dividing the amounts of metabolites formed from the incubation with human liver microsomes and human cDNA-expressed CYP or UGT enzymes by the incubation time.

[2] = target: H^+/K^+-ATPase (Homo sapiens, UniProt P20648); details: read-out: IC50 for the H^+/K^+-ATPase inhibition; cited from earlier work
Sequence of H^+/K^+-ATPase (P20648 whole entry): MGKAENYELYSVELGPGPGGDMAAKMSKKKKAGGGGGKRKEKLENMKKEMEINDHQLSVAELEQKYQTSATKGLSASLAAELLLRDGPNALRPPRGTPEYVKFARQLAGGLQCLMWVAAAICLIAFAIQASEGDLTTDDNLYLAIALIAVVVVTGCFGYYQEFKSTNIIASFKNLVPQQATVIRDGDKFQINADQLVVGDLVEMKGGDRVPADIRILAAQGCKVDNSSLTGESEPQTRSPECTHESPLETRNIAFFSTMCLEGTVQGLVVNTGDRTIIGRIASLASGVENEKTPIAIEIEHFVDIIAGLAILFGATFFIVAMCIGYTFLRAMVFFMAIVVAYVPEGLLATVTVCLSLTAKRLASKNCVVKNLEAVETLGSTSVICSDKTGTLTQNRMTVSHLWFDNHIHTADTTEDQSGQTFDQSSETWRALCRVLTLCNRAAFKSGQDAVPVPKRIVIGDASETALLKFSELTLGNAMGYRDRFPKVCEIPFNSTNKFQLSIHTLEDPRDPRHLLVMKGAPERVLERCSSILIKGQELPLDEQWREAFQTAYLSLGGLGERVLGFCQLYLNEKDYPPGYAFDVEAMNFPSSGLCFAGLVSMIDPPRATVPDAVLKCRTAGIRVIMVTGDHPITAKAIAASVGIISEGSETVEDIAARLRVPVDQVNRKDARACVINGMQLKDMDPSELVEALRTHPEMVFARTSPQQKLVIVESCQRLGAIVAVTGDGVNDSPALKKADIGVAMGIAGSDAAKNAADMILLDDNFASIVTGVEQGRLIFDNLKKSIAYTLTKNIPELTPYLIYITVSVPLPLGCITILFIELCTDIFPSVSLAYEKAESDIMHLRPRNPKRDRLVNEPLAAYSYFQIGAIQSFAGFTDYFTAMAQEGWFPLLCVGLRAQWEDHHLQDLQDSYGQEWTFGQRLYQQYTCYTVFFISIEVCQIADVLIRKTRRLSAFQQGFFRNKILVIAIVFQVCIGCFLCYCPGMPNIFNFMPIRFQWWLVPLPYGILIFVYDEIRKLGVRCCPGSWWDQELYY
Sequence of H^+/K^+-ATPase (P51164 whole entry partner): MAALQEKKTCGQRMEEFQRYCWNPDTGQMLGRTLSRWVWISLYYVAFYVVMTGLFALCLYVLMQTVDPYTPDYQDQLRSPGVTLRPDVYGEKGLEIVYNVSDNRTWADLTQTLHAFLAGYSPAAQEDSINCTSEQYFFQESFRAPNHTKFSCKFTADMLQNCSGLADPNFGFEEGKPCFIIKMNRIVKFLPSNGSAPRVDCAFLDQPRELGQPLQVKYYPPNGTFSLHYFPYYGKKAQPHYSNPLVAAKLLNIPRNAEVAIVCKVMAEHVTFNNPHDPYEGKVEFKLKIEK

[3] = target: T2, human cDNA-expressed CYP3A4 (Homo sapiens, UniProt P08684); experiment: Enzyme kinetics of JP-1366 metabolism in cDNA-expressed CYP3A4; assay type: in vitro ADME
T2 construct: purchased Corning Life Sciences
T2 sequence (P08684 whole entry): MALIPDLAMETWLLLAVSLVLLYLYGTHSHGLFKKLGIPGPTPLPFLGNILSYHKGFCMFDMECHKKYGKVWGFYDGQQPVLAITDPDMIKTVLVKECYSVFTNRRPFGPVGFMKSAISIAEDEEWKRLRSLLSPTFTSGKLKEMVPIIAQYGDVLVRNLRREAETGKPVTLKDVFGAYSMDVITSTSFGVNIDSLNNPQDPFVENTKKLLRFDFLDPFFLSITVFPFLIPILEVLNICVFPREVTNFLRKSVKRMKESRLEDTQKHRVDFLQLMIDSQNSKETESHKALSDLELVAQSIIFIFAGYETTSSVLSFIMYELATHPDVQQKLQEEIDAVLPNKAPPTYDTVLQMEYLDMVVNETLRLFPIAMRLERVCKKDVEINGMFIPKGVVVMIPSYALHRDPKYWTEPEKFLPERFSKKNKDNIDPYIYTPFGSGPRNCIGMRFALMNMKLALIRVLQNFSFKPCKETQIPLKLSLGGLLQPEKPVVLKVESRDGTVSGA
Protocol: as §1, §2

[4] = test system: human, dog, monkey, mouse, and rat hepatocytes; experiment: In vitro metabolic profiling of JP-1366 in hepatocytes; assay type: in vitro ADME; details: 10 µM JP-1366, 60 min; H human, D dog, Mk monkey, M mouse, R rat
Protocol: Cryopreserved human, dog, monkey, mouse, and rat hepatocytes were purified and recovered according to the manufacturer’s protocol. […] The metabolic reaction in each sample well was quenched by adding 120 μL of ice-cold acetonitrile.
MS spectra were obtained in positive-ion mode using electrospray ionization under optimized conditions as follows: capillary temperature, 350 °C; sheath gas flow rate, 40 (arbitrary units); aux gas flow rate, 10 (arbitrary units); and aux gas heater temperature, 350 °C. Full MS scan with data-dependent MS/MS was performed from m/z 100 to m/z 1000.

[5] = test system: CYP3A4/5; experiment: Combined contribution of CYP3A4/5 to formation of major JP-1366 metabolites; assay type: in vitro ADME, human; details: sum of CYP3A4 and CYP3A5 contributions
Protocol: as §1, §2

[6] = target: T3, human cDNA-expressed CYP1A2 (Homo sapiens, UniProt P05177); experiment: Enzyme kinetics of JP-1366 metabolism in cDNA-expressed CYP1A2; assay type: in vitro ADME
T3 construct: purchased Corning Life Sciences
T3 sequence (P05177 1-516): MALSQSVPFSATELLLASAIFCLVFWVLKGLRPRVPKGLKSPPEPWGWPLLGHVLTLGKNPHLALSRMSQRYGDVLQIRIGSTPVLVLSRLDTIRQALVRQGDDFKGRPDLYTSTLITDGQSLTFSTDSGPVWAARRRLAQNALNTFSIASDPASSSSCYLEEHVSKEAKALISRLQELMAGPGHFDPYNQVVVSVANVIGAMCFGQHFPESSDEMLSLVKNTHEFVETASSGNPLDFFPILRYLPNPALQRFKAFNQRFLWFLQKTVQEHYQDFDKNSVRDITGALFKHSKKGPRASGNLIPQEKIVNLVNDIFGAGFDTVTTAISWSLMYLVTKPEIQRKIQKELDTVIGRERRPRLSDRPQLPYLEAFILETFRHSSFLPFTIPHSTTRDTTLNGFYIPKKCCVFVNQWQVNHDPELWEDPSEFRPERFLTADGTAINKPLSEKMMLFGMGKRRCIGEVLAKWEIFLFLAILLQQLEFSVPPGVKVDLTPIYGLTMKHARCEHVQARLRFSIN
Protocol: as §1, §2

[7] = test system: monkey hepatocytes; experiment: Metabolic stability of JP-1366 in monkey hepatocytes; assay type: in vitro ADME; details: monkey hepatocytes
Protocol: (§3) According to the manufacturer’s protocol, cryopreserved human, dog, monkey, mouse, and rat hepatocytes were purified and recovered. […] The metabolic reaction in each sample well was quenched by adding 120 μL of ice-cold acetonitrile.
(§4) Log-transformed relative responses of JP-1366 were plotted against incubation time, thereby obtaining the elimination slope (k) from the linear regression analysis. […] (1) t1 /2(min)=ln2/kelimination slope (2) Clint(mL/min/kg)=ln2/t1/2×mL incubation/hepatocyte (10^6 cells)×B×10^6 cells/g liver×A g liver/kg BW (3) Clhep(mL/min/kg)=Qh×Clint/Qh+Clint (4) HER=Clhep/Qh
(§5) Here, A means the liver weight parameters and has values of 25.7, 32, 30, 87.5, and 40; B means the cell number parameters and has values of 139, 215, 120, 135, and 117; Qh represents hepatic blood flow and has values of 20.7, 30.9, 43.6, 90, and 55.2 mL/min/kg for humans, dogs, monkeys, mice, and rats, respectively. Hepatic extraction ratios (HERs) of ≤0.25, 0.25–0.75, and ≥0.75 were regarded as low, moderate, and high, respectively.

[8] = as above; assay type: in vitro ADME; details: cryopreserved monkey hepatocytes
Protocol: as §3, §4, §5

[9] = test system: histamine-stimulated gastric acid secretion; design: method as in PMID 36504556; details: Heidenhain pouch dog model; cited from earlier work
[10] = test system: human hepatocytes; experiment: Metabolic stability of JP-1366 in human hepatocytes; assay type: in vitro ADME; details: human hepatocytes
Protocol: as §3, §4, §5

[11] = as above; assay type: in vitro ADME; details: cryopreserved human hepatocytes
Protocol: as §3, §4, §5

[12] = test system: rat hepatocytes; experiment: Metabolic stability of JP-1366 in rat hepatocytes; assay type: in vitro ADME; details: rat hepatocytes
Protocol: as §3, §4, §5

[13] = Metabolic stability of JP-1366 in rat hepatocytes; assay type: in vitro ADME; details: cryopreserved rat hepatocytes
Protocol: as §3, §4, §5

[14] = test system: GERD lesion; details: rats, compared with vonoprazan; cited from earlier work
[15] = test system: mouse hepatocytes; experiment: Metabolic stability of JP-1366 in mouse hepatocytes; assay type: in vitro ADME; details: mouse hepatocytes
Protocol: as §3, §4, §5

[16] = as above; assay type: in vitro ADME; details: cryopreserved mouse hepatocytes
Protocol: as §3, §4, §5

[17] = test system: dog hepatocytes; experiment: Metabolic stability of JP-1366 in dog hepatocytes; assay type: in vitro ADME; details: dog hepatocytes
Protocol: as §3, §4, §5

[18] = Metabolic stability of JP-1366 in dog hepatocytes; assay type: in vitro ADME; details: cryopreserved dog hepatocytes
Protocol: as §3, §4, §5

[19] = formation of the labelled metabolite from JP-1366, CYP2C19
[20] = formation of the labelled metabolite from JP-1366, CYP3A4
[21] = formation of the labelled metabolite from JP-1366, CYP1A2

T1 sequence (P33261 whole entry): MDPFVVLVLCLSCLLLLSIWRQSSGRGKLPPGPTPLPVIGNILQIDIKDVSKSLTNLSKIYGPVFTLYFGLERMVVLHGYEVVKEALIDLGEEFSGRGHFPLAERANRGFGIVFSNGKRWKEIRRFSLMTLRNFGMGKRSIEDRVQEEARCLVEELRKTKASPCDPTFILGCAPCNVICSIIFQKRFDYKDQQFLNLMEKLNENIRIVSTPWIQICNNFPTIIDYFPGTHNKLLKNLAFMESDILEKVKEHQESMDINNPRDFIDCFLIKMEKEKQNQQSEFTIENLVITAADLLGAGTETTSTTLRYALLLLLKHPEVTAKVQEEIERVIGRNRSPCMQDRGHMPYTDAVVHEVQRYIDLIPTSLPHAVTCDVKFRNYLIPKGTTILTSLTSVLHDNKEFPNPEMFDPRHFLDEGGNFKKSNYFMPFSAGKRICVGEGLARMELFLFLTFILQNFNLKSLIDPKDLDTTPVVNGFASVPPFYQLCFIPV

In the case of `Cc1cccc(CO)c1CNc1cc(C(=O)N2CCC2)cn2c(C)c(C)nc12` [M1, azetidin-1-yl(8-((2-(hydroxymethyl)-6-methyl-benzyl)amino)-2,3-dimethylimidazo[1,2-a]pyridin-6-yl)methanone], the CLint [1, 19] is reported as 0.068 μL/min/pmol CYP, the “n (Hill coefficient)” value [1, 19] is reported as 1.6 and the “Contribution (%)” value ([1]; relative contribution of CYP2C19 to formation of the labelled metabolite) is reported as 0.1%. For the same molecule, the IC50 [2] was 66.5 nM, the CLint [3, 20] was 0.35 μL/min/pmol CYP and the “n (Hill coefficient)” value [3, 20] was 2.9. For the same molecule, the “Contribution (%)” value ([3]; relative contribution of CYP3A4 to formation of the labelled metabolite) was 17.3%, the “Hepatocytes (species in which the metabolite was found)” value [4] was “H, D, Mk, M, R” and the “contribution of CYP3A4/5 to formation of the metabolite from JP-1366” value [5] was 85.9%. The CLint [6, 21] was 0.0014 μL/min/pmol CYP, the “n (Hill coefficient)” value [6, 21] was 0.6 and the “Contribution (%)” value ([6]; relative contribution of CYP1A2 to formation of the labelled metabolite) was 0.1%.

Work on `Cc1cccc(C)c1CNc1cc(C(=O)N2CCC2)cn2c(C)c(C)nc12` [JP-1366, 1-azetidinyl(8-(((2,6-dimethylphenyl)methyl)amino)-2,3-dimethylimidazo(1,2-a)pyridin-6-yl)methanone] yielded a CLhep [7] of 31.1 mL/min/kg, an HER [7] of 0.72 and a CLint scaled at 1 µM ([8]; monkey hepatocytes, scaled with physiological parameters) of 110 mL/min/kg. For the same molecule, the half-life at 1 µM ([8]; monkey) was 48.4 min, the “inhibition of histamine-stimulated gastric acid secretion” value [9] was “equal to or higher than vonoprazan” and the CLhep [10] was 16.3 mL/min/kg. The HER [10] was 0.79, the CLint scaled at 1 µM ([11]; human hepatocytes, scaled with physiological parameters) was 77.5 mL/min/kg and the half-life at 1 µM ([11]; human) was 63.9 min. The CLhep [12] was 39.4 mL/min/kg, the HER [12] was 0.71 and the CLint scaled at 1 µM ([13]; rat hepatocytes, scaled with physiological parameters) was 138 mL/min/kg. For the same molecule, the half-life at 1 µM ([13]; rat) was 47.1 min, the “GERD lesion inhibition rates” value [14] was “greater GERD lesion inhibition rates” and the CLhep [15] was 75.3 mL/min/kg. It also gave an HER [15] of 0.84, a CLint scaled at 1 µM ([16]; mouse hepatocytes, scaled with physiological parameters) of 461 mL/min/kg and a half-life at 1 µM ([16]; mouse) of 59.2 min. The CLhep [17] was 25.6 mL/min/kg, the HER [17] was 0.83 and the CLint scaled at 1 µM ([18]; dog hepatocytes, scaled with physiological parameters) was 150 mL/min/kg. For the same molecule, the half-life at 1 µM ([18]; dog) was 63.5 min.
